For this experiment, the system named is platelet aggregation. In words: In vitro anti-platelet test: inhibition of arachidonic acid-induced platelet aggregation in platelet-rich plasma (Born's turbidimetric method). It counts as cell-based, male Japanese white rabbits. Particulars: Oryctolagus cuniculus, 5 min, rabbit PRP, 37° C., read-out: Percentage inhibition of platelet aggregation; for inhibition at 50 µg/mL: 50 μg/ml; for inhibition at 100 µg/mL: 100 μg/ml; for inhibition at 10 µg/mL: 10 μg/ml; for inhibition at 25 µg/mL: 25 μg/ml. How it is done: The anti-platelet aggregating activity of the compounds of the present invention was determined by Born's turbidimetric method (G.V.R. Born, Nature, No. 4832, Jun. 9, 1962, 927-929) using an aggregometer (NKK Hema Tracer 1, PAT-4M, NKK Inc. Japan).
PRP was prepared from male Japanese white rabbits weighing 2.3-4.1 kg. Blood was drawn into syringes containing 3.8% sodium citrate (1/10 volume) and centrifuged at 1000 r.p.m. for 10 min. at room temperature. Platelet poor plasma (PPP) was obtained from the supernatant fraction of the residual blood by centrifugation at 3000 r.p.m. for 10 min. The aggregation (%) was calculated against the turbidity of PPP, which was designated as 100%. 1.2. In vitro anti-platelet test
A 200 μl volume of PRP was placed in the cuvette of the aggregometer and incubated at 37° C. To the cuvette was added 25 μl of 10% methanol solution in physiological saline as a solvent or 25 μl of test drug solution dissolved in the solvent in a predetermined concentration (μg/ml) indicated in Table 2, which was stirred and incubated. 5 min. after, platelet aggregation was induced by the addition of 25 μl of 10^-2 M arachidonic acid. Changes in the percentage of aggregation was recorded on a multirecorder (T626-DS, NKK Inc., Japan). 1-(4' -Methoxybenzoyl)-2-pyrrolidinone (aniracetam) was used as a control compound.
2. Result The percentage inhibition (I) of platelet aggregation by a test drug was calculated from the following equation: […]
in which A is the percentage maximum aggregation for addition of the drug and B is the percentage maximum aggregation for no addition of the drug.

The text below walks through data of patent publication US5227395A, “Anti-platelet aggregating agent” (Nisshin Flour Milling Co., Ltd., priority 1991, dated 1993).

Molecules are shown by their SMILES.

As to `COc1ccc(C(=O)N2CCCC2=O)cc1` [Aniracetam, 1-(4' -Methoxybenzoyl)-2-pyrrolidinone, reference compound], the inhibition (in general, how much of the control response was suppressed) at 50 µg/mL stood at 0.4% and the inhibition at 100 µg/mL came out at 4.1%.

With `COc1ccccc1OC(=O)N1CCCC1=O` [Compound No. 2, 1-(2'-Methoxyphenoxycarbonyl)-2-pyrrolidinone], the inhibition at 10 µg/mL is 40.9%, the inhibition at 25 µg/mL is 69.8%, the inhibition at 50 µg/mL was found to be 81.6% and the inhibition at 100 µg/mL was determined as 96.2%.

`COc1cccc(OC(=O)N2CCCC2=O)c1` [Compound No. 3, 1-(3'-Methoxyphenoxycarbonyl)-2-pyrrolidinone]: the inhibition at 50 µg/mL was found to be 8.5% and the inhibition at 100 µg/mL worked out at 28.6%.

For the compound `COc1ccc(OC(=O)N2CCCC2=O)cc1` [Compound No. 4, 1-(4'-Methoxyphenoxycarbonyl)-2-pyrrolidinone], the inhibition at 10 µg/mL is 51.1%, the inhibition at 25 µg/mL turned out to be 72.5%, the inhibition at 50 µg/mL stood at 95.5% and the inhibition at 100 µg/mL was found to be 98.2%.

For the compound `Cc1ccccc1OC(=O)N1CCCC1=O` [Compound No. 5, 1-(2'-Methylphenoxycarbonyl)-2-pyrrolidinone], the inhibition at 10 µg/mL was determined as 5%, the inhibition at 25 µg/mL amounted to 35.8%, the inhibition at 50 µg/mL came to 50.6% and the inhibition at 100 µg/mL was 92.3%.

For `Cc1cccc(OC(=O)N2CCCC2=O)c1` [Compound No. 6, 1-(3'-Methylphenoxycarbonyl)-2-pyrrolidinone], the inhibition at 50 µg/mL came out at 4.7% and the inhibition at 100 µg/mL was 39.7%.

Take `Cc1ccc(OC(=O)N2CCCC2=O)cc1` [Compound No. 7, 1-(4'-Methylphenoxycarbonyl)-2-pyrrolidinone]: the inhibition at 10 µg/mL was 5.8%, the inhibition at 25 µg/mL stood at 31%, the inhibition at 50 µg/mL stood at 70.6% and the inhibition at 100 µg/mL was found to be 97.7%.

In the case of `COc1cccc(OC)c1OC(=O)N1CCCC1=O` [Compound No. 18, 1-(2',6'-Dimethoxyphenoxycarbonyl)-2-pyrrolidinone], the inhibition at 10 µg/mL is 26%, the inhibition at 25 µg/mL stood at 64.8%, the inhibition at 50 µg/mL was determined as 90.9% and the inhibition at 100 µg/mL amounted to 96.4%.
